Values quoted from earlier work in patent US20260199330A1, “MEDICAL METHOD AND USE” (ViiV Healthcare UK (No.3) Limited, priority 2024, published 2026).

Tests used:
[1] = supratherapeutic oral CAB 150 mg q12 h×3 doses, TQT study
[2] = oral 60 mg once daily for 2 years, LAI116482 (LATTE)

## C[C@H]1CO[C@@H]2Cn3cc(C(=O)NCc4ccc(F)cc4F)c(=O)c(O)c3C(=O)N12 [Cabotegravir, (3S, 11aR)-N-((2,4-difluorophenyl)methyl)-6-hydroxy-3-methyl-5,7-dioxo-2,3,5, 11,11a-hexahydro(1,3)oxazolo(3,2-a)pyrido(1,2-d)pyrazine-8-carboxamide]
[1]
  geometric mean Cmax, short-term safety threshold: 22500 ng/mL
[2]
  median (steady state) Cmax, long-term safety threshold: 13100 ng/mL
